≈ marks a conversion by molar mass, not a printed value. Entries after “also recorded” stand apart in the source; their conditions may differ.
Experiments:
[1] = molecular target: T1, AmpC β-lactamase (Escherichia coli, UniProt P00811); experiment: biochemical; format: biochemical; conditions: for Ki: 50 mM TRIS pH 7.0, nitrocefin substrate, progress curve analysis; for change of AmpC inhibition/binding relative to compound 1: analogs of 1
T1 construct: made in house
Method: Enzymology. AmpC from Escherichia coli was expressed and purified to homogeneity as described in the literature. […] All were used without further purification. Kinetic measurements with AmpC were performed in 50 mM TRIS buffer, pH 7.0, using nitrocefin as a substrate. […] Reactions were initiated by the addition of 0.875 nM enzyme and monitored in methacrylate cuvettes. […] Ki values for the compounds were obtained by comparison of progress curves in the presence and absence of inhibitor.

[2] = molecular target: T2, α-chymotrypsin (Bos taurus, UniProt P00766); experiment: biochemical; set-up: species or system bovine; conditions: 200 μM substrate, 50 mM TRIS pH 7.0, 25° C.
T2 construct: purchased Sigma (St. Louis, Mo.); host or cells: bovine pancreas
Method: (§1) The substrates for α-chymotrypsin (succinyl-ala-ala-pro-phe-p-nitroanilide) and β-trypsin (N-benzoyl-L-arginine ethyl ester, BAEE) were also purchased from Sigma. The elastase substrate used (elastase substrate 1, MeOSuc-Ala-Ala-Pro-Val-pNA) was purchased from Calbiochem (San Diego, Calif.). Substrates were diluted from 10 mM DMSO stock solutions, and all reactions were performed in 50 mM TRIS buffer, pH 7.0, 25° C. For α-chymotrypsin, 200 μM of substrate was used; the reactions were initiated by addition of 10 μL of a 0.1 mg/ml enzyme stock solution and monitored at 410 nm. For β-trypsin, 200 μM of BAEE was used, the reactions were initiated by the addition of 5 μL of a 0.2 mg/ml enzyme stock solution, and monitored at 260 nm. For elastase, 640 μM of elastase substrate was used, the reactions were initiated by the addition of 30 μL of a 0.2 mg/mL enzyme stock solution, and monitored at 385 nm. Initial rate fits to the absorbance data for the first 150 seconds of each reaction were used to determine reaction velocities.

[3] = molecular target: T3, β-trypsin (Bos taurus, UniProt P00760); experiment: biochemical; format: biochemical, bovine
T3 construct: β-trypsin (bovine pancreatic); purchased Sigma (St. Louis, Mo.); host or cells: bovine pancreas
Method: as §1

[4] = molecular target: T4, elastase (Sus scrofa, UniProt P00772); experiment: elastase selectivity counter-screen; format: biochemical, porcine
T4 construct: purchased Sigma (St. Louis, Mo.); host or cells: porcine pancreas
Method: as §1

[5] = tested on: JM109 E. coli expressing AmpC; experiment: Antimicrobial susceptibility testing (MIC), AmpC-expressing strain; format: cell-based
Method: (§2) Antimicrobial experiments. Susceptibility testing was performed and interpreted following the guidelines of the National Committee for Clinical Laboratory Standards. To test the inhibitory activity of 1, the compound was dissolved in 50% DMSO and dilutions were performed using Luria Broth growth medium.

[6] = tested on: related serine amidases; experiment: Counter-screens against related serine amidases; format: biochemical
Method: as §1

[7] = tested on: JM109 that does not express AmpC; experiment: Antimicrobial susceptibility testing (MIC), strain without AmpC; format: cell-based, E. coli; conditions: Escherichia coli, read-out: MIC of ampicillin in JM109 that does not express AmpC
Method: as §2

T1 sequence (P00811 20-377): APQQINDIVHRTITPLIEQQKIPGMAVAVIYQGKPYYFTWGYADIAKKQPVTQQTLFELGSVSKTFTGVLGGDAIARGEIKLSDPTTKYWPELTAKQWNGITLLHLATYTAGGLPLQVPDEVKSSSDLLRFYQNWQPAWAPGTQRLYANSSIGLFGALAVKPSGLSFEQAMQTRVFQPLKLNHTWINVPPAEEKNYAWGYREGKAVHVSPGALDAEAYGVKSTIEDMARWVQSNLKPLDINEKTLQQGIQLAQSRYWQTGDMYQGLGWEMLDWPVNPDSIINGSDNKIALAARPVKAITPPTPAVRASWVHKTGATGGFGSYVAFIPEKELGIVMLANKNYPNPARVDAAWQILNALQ
T4 sequence (P00772 27-266): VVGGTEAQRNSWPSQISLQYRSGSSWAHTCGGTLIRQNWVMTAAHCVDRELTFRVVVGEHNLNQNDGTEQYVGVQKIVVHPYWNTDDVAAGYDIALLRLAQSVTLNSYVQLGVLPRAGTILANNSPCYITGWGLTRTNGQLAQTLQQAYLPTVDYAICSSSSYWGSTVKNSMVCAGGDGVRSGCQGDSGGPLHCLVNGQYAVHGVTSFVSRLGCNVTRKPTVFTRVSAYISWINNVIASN
T3 sequence (P00760 24-246): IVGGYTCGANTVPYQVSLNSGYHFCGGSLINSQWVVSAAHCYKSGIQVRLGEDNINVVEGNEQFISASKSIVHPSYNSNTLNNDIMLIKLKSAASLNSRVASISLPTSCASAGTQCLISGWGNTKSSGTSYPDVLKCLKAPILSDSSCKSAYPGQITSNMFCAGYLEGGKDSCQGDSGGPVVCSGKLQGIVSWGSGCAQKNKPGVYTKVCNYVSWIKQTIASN

Compound | Ki [1] | change of AmpC inhibition/binding relative to compound 1 [1] | other results
O=C(O)c1sccc1S(=O)(=O)Nc1ccccc1N1CCCCC1 [Compound 7, 3-[(2-piperidinoanilino)sulfonyl]thiophene-2-carboxylic acid] | 14 µM | slight improvement in affinity | –
COc1ccc(NS(=O)(=O)c2ccccc2[N+](=O)[O-])cc1 [Compound 9, N-(4-methoxyphenyl)-2-nitro-benzenesulfonamide] | > 100 µM | compromised inhibition; also recorded: binding was somewhat problematic | –
O=S(=O)(O)CCCSc1nc2ccccc2s1 [Compound 2, 3-(2-benzothiazolylthio)-1-propanesulfonic acid] | 318 µM | – | –
3-([4-[3-chloro-5-(trifluoromethyl)pyridin-2-yl]piperazino]sulfonyl)thiophene-2-carboxylate [Compound 6] | > 100 µM | hindered binding | –
Cc1oc(C)c(S(=O)(=O)Nc2cccs2)c1C(=O)O [Compound 8, 2,5-dimethyl-4-(2-thienylaminosulfonyl)furan-3-carboxylic acid] | 64 µM | – | –
O=C(O)c1sccc1S(=O)(=O)Nc1ccc(Cl)cc1 [Compound 1, 3-[(4-chloroanilino)sulfonyl]thiophene-2-carboxylic acid] | 23 µM | – | mode of inhibition of AmpC [1]: competitive, non-covalent inhibitor; also recorded: competitive, reversible inhibitor; IC50 [2]: > 1200 µM; IC50 ([3]; 200 μM BAEE, 50 mM TRIS pH 7.0, 25° C.): > 4000 µM; inhibition of trypsin ([3]; at concentrations up to 4 mM): no inhibition; IC50 ([4]; 640 μM elastase substrate, 50 mM TRIS pH 7.0, 25° C.): > 4000 µM; inhibition of elastase ([4]; at concentrations up to 4 mM): no inhibition; antibiotic activity of compound alone ([5]; at the concentration used in the ampicillin combination): no measurable antibiotic activity; increase in efficacy of ampicillin ([5]; bacterial cell culture, resistant strain): four-fold; minimum inhibitory concentration (MIC) of ampicillin in the presence of the compound ([5]; resistant strain overexpressing β-lactamase): 128 µg/mL; inhibition of related serine amidases in counter-screens [6]: did not inhibit
O=C(O)CCSc1nc2ccccc2s1 [Compound 3, 3-(2-benzothiazolylthio)propionic acid] | 646 µM | – | –
CC1(C)S[C@@H]2[C@H](NC(=O)[C@H](N)c3ccccc3)C(=O)N2[C@H]1C(=O)O [Ampicillin, ampicillin, reference compound] | – | – | MIC ([5]; Escherichia coli, read-out: MIC JM109/AmpC): 512 µg/mL (≈ 1470 µM); MIC [7]: 4 µg/mL
Cc1ccc(S(=O)(=O)Nc2csc(C)c2C(=O)O)cc1 [Compound 4, 2-methyl-4-[[(4-methylphenyl)sulfonyl]amino]thiophene-3-carboxylic acid] | 60 µM | diminished inhibition three-fold; also recorded: reduced binding by three-fold | –
COC(=O)c1sccc1S(=O)(=O)Nc1ccc(Cl)cc1 [Compound 5, methyl 3-[(4-chloroanilino)sulfonyl]thiophene-2-carboxylate] | > 100 µM | compromised inhibition; also recorded: binding was somewhat problematic | –
O=C(Cc1cccs1)N[C@@H]1C(=O)N2C(C(=O)O)=C(/C=C/c3ccc([N+](=O)[O-])cc3[N+](=O)[O-])CS[C@H]12 [nitrocefin, reference compound] | – | – | Km ([1]; read-out: Km of nitrocefin for AmpC, 50 mM TRIS buffer, pH 7.0): 127 µM

Reference: patent publication US7541381B2, “Non-covalent inhibitors of AmpC β-lactamase” (Northwestern University, priority 2002, dated 2009)
